Assay results published in patent US7511059B2, “Thiazolidinones, their production and use as pharmaceutical agents” (Schering Ag, priority 2005, dated 2009).

Experiments:
[1] = system: human MaTu breast tumor cells; experiment: Proliferation Assay; type: cell-based; details: 96 h, incubated 4 days, crystal violet, read-out: Inhibition of the Tumor Cell Proliferation (MaTu) IC50
Protocol: Cultivated human MaTu breast tumor cells were flattened out at a density of 5000 cells/measuring point in a 96-well multititer plate in 200 μl of the corresponding growth medium. After 24 hours, the cells of one plate (zero-point plate) were colored with crystal violet (see below), while the medium of the other plates was replaced by fresh culture medium (200 μl), to which the test substances were added at various concentrations (0 μm, as well as in the range of 0.01-30 μm; the final concentration of the solvent dimethyl sulfoxide was 0.5%). The cells were incubated for 4 days in the presence of test substances. The cell proliferation was determined by coloring the cells with crystal violet: the cells were fixed by adding 20 μl/measuring point of an 11% glutaric aldehyde solution for 15 minutes at room temperature. After three washing cycles of the fixed cells with water, the plates were dried at room temperature. The cells were colored by adding 100 μl/measuring point of a 0. 1% crystal violet solution (pH was set at 3 by adding acetic acid). After three washing cycles of the colored cells with water, the plates were dried at room temperature. The dye was dissolved by adding 100 μl/measuring point of a 10% acetic acid solution. The extinction was determined by photometry at a wavelength of 595 nm. The change of cell growth, in percent, was calculated by standardization of the measured values to the extinction values of the zero-point plate (=0%) and the extinction of the untreated (0 μm) cells (=100%).

[2] = target: T1, Recombinant human Plk-1 (Homo sapiens, UniProt P53350); experiment: PLK Enzyme Assay; type: biochemical; details: biotinylated casein and 33P-γ-ATP as substrate, 90 minutes at room temperature, read-out: PLK-1 IC50 [nM] Inhibition
T1 construct: 6xHis; made in house; host or cells: baculovirus-infected Hi5 insect cells
Protocol: Recombinant human Plk-1 (6× His) was purified from baculovirus-infected insect cells (Hi5).
10 ng of (produced in a recombinant manner and purified) PLK enzyme is incubated for 90 minutes at room temperature with biotinylated casein and 33P-γ-ATP as a substrate in a volume of 15 μl in 384-well Greiner small-volume microtiter plates (final concentrations in the buffer: 660 ng/ml of PLK; 0.7 lmol of casein, 0.5 gmol of ATP incl. 400 nCi/ml of 33P-γ-ATP; 10 mmol of MgCl2, 1 mmol of MnCl2; 0.01% NP40; 1 mmol of DTT, protease inhibitors; 0.1 mmol of Na2VO3 in 50 mmol of HEPES, pH 7.5). To complete the reaction, 5 μl of stop solution (500 μmol of ATP; 500 mmol of EDTA; 1% Triton X100; 100 mg/ml of streptavidin-coated SPA beads in PBS) is added. After the microtiter plate is sealed by film, the beads are sedimented by centrifuging (10 minutes, 1500 rpm). The incorporation of 33P-γ-ATP in casein is intended as a measurement of enzyme activity by β-counting.
Test substances are used in various concentrations (0 μmol, as well as in the range of 0.01-30 μmol). The final concentration of the solvent dimethyl sulfoxide is 1.5% in all batches.

T1 sequence (P53350 whole entry): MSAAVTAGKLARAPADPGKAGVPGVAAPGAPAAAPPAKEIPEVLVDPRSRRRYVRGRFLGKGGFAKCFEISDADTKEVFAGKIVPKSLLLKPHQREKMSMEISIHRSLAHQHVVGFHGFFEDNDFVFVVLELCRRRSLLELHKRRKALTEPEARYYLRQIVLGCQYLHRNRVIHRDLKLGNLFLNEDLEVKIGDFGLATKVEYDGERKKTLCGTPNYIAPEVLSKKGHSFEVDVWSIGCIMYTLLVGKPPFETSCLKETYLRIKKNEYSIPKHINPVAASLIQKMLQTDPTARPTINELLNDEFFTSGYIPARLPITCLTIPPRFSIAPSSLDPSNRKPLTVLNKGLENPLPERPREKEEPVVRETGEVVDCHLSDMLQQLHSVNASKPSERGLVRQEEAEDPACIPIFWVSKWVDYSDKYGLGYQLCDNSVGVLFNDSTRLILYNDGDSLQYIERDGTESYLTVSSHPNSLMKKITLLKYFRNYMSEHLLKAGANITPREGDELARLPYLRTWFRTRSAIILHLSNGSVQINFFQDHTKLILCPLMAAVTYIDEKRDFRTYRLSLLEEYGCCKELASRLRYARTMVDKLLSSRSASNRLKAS

CCNc1cc(NC=c2sc(=C(C#N)C3=N[C@H]4CCC[C@H]4O3)n(CC)c2=O)ccn1 (mixture of isomers) [Example 38, [3-Ethyl-5-[1-(2-ethylamino-pyridin-4-ylamino)-meth-(E/Z)-ylidene]-4-oxo-thiazolidin-(2-(E or Z))-ylidene]-(3aS,6aR)-4,5,6,6a-tetrahydro-3aH-cyclopentaoxazol-2-yl-acetonitrile]
IC50 [1]: 1.2 µM
IC50 [2]: 24 nM

CCn1c(=C(C#N)C2=NC(C)(C)CO2)sc(=CNc2cccc(NC(=O)COCCOC)n2)c1=O (mixture of isomers) [Example 37, N-(6-{[2-[1-Cyano-1-(4,4-dimethyl-4,5-dihydro-oxazol-2-yl)-meth-(E or Z)-ylidene]-3-ethyl-4-oxo-thiazolidin-(5-(E/Z))-ylidenemethyl]-amino}-pyridin-2-yl)-2-(2-methoxy-ethoxy)-acetamide]
IC50 [1]: 3.6 µM
IC50 [2]: 69 nM

CCn1c(=C(C#N)C2=NCC(C)O2)sc(=CNc2cccc(NC(=O)C(C)(C)C)c2)c1=O (mixture of isomers) [Example 15, N-(3-{[2-[1-Cyano-1-(5-methyl-4,5-dihydro-oxazol-2-yl)-meth-(E or Z)-ylidene]-3-ethyl-4-oxo-thiazolidin-(5-(E/Z))-ylidenemethyl]-amino}-phenyl)-2,2-dimethyl-propionamide]
IC50 [1]: 2.1 µM
IC50 [2]: 55 nM

CCn1c(=C(C#N)C2=N[C@@H](C)CO2)sc(=CNc2cccc(NC(=O)C(C)(C)C)c2)c1=O [Example 20, N-(3-{[2-[1-Cyano-1-((S)-4-methyl-4,5-dihydro-oxazol-2-yl)-meth-(E or Z)-ylidene]-3-ethyl-4-oxo-thiazolidin-(5-(E/Z))-ylidenemethyl]-amino-phenyl)-2,2-dimethyl-propionamide]
IC50 [1]: 3.2 µM
IC50 [2]: 140 nM

CCn1c(=C(C#N)C2=N[C@H]3CCC[C@H]3O2)sc(=CNc2cccc(NC(=O)C(C)(C)O)c2)c1=O (mixture of isomers) [Example 31, N-(3-{[2-[(3aS,6aR)-1-Cyano-1-4,5,6,6a-tetrahydro-3aH-cyclopentaoxazol-2-yl-meth-(E or Z)-ylidene]-3-ethyl-4-oxo-thiazolidin-(5-(E/Z))-ylidenemethyl]-amino}-phenyl)-2-hydroxy-2-methyl-propionamide]
IC50 [1]: 1.2 µM
IC50 [2]: 53 nM
